One assay has as its target Acetylcholinesterase (Electrophorus electricus, UniProt O42275). The experiment in a line: Inhibition of electric eel AChE using acetylthiocholine iodide as substrate incubated for 15 mins by spectrophotometric analysis.
The target in a further assay is Cholinesterase (Equus caballus, UniProt P81908). The experiment in a line: Inhibition of equine serum BChE using butyrylthiocholine chloride as substrate incubated for 15 mins by spectrophotometric analysis.
Assay [1] has as its target T1, Beta-secretase 1 (Homo sapiens, UniProt P56817). The experiment in a line: Inhibition of recombinant human BACE1 using Rh-EVNLDAEFK-Quencher as substrate after 60 mins by FRET assay.
Assay [2] deals with T1, Beta-secretase 1. The experiment in a line: Mixed type inhibition of recombinant human BACE1 using Rh-EVNLDAEFK-Quencher as substrate after 60 mins by Dixon plot analysis.
The target in assay [3] is T1, Beta-secretase 1. Nature of the assay: Noncompetitive inhibition of recombinant human BACE1 using Rh-EVNLDAEFK-Quencher as substrate after 60 mins by Dixon plot analysis.
For assay [4], the target named is T1, Beta-secretase 1. The experiment in a line: Noncompetitive inhibition of recombinant human BACE1 using Rh-EVNLDAEFK-Quencher as substrate after 60 mins by Lineweaver-Burk plot analysis.

pIC50, pKi: −log10 of the molar value. Calls of active or inactive are those of the source. The calls are words filed in the database; no cut-off is given here.

Sequence of Cholinesterase (P81908 whole entry): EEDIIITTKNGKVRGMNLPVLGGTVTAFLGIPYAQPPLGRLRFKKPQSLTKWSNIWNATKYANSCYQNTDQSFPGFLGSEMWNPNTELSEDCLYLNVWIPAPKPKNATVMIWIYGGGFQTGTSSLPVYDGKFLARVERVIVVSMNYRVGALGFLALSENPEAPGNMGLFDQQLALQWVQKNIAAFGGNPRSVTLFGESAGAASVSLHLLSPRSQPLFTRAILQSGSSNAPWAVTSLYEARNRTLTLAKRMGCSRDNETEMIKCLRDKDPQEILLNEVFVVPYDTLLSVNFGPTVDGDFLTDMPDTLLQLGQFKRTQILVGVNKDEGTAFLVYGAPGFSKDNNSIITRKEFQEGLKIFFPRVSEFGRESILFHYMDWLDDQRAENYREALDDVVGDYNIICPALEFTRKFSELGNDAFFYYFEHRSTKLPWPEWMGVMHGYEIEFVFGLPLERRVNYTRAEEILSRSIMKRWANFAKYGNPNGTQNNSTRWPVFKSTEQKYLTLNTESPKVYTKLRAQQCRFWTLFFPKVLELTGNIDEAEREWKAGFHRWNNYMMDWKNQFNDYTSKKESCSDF
T1 sequence (P56817 whole entry): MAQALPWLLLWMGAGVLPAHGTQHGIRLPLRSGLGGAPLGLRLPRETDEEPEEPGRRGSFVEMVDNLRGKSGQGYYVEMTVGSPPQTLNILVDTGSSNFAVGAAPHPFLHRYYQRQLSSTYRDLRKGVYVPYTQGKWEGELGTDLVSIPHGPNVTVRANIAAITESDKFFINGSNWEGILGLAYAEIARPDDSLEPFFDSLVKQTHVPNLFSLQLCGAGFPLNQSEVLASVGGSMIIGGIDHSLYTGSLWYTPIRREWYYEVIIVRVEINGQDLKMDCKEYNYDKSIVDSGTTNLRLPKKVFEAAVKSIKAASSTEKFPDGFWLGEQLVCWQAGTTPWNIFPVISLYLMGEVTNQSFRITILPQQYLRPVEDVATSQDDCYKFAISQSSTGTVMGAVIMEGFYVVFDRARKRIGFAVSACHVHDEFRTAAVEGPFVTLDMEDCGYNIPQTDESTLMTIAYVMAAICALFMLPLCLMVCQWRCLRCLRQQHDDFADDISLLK
Sequence of Acetylcholinesterase (O42275 whole entry): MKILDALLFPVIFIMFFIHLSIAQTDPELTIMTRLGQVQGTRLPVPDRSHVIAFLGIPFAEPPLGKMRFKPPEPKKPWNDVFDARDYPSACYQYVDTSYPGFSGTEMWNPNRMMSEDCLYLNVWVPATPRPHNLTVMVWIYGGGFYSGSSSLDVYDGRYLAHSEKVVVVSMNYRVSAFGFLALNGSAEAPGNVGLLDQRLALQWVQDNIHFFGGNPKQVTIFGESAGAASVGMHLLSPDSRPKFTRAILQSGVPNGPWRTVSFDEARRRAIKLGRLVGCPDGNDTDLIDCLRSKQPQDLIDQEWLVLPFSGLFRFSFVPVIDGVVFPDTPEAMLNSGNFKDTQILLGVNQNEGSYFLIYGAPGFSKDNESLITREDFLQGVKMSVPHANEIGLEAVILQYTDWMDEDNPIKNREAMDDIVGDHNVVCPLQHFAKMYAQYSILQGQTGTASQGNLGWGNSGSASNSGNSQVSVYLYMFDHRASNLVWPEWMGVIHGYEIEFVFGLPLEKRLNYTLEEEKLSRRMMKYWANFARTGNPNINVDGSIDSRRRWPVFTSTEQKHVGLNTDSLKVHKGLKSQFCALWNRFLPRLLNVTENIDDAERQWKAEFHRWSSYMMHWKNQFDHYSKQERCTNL

With `CC(C)=CCC/C(=C/CC/C(C)=C/CC/C(C)=C/Cc1cc(O)cc(C)c1O)C(=O)O` [SARGAHYDROQUINOIC ACID], the pIC50 (as a rule, the negative decadic logarithm of the IC50, by convention in mol/L) on Acetylcholinesterase is 3.91; against Cholinesterase it was 4.82; on Beta-secretase 1 [1], 5.36. In addition, on Beta-secretase 1 [2], the pKi – broadly, the negative decadic logarithm of the Ki, by convention in mol/L – was 5.80.
As to `CC(C)=CCC/C(=C/CC/C(C)=C/CCC1(C)C=Cc2cc(O)cc(C)c2O1)C(=O)O` (stereo not drawn), the pIC50 is 4.01 on Acetylcholinesterase, 5.03 against Cholinesterase and 5.15 on Beta-secretase 1 [1]. In addition, the pKi on Beta-secretase 1 [3] was 5.54. In addition, the inhibition result at Beta-secretase 1 [4] is “Active”.
Regarding `CC(C)=CCC/C(=C/CC/C(C)=C/CC/C(C)=C/CC1=CC(=O)C=C(C)C1=O)C(=O)O`, the pIC50 against Acetylcholinesterase was 4.16; at Cholinesterase it was 4.98. Also, at Beta-secretase 1 [2], the pKi was 5.40.
Turning to `COc1ccc2cc3[n+](cc2c1OC)CCc1cc2c(cc1-3)OCO2` [BERBERINE], the pIC50 at Acetylcholinesterase is 5.80.

The values are drawn from ChEMBL document CHEMBL4052658, “BACE1 inhibitory activity and molecular docking analysis of meroterpenoids from Sargassum serratifolium” (Bioorg Med Chem, 2017).
